Results from patent US20160243051A1, “MONO DISPERSE POLYMER NANOPARTICLES, FUNCTIONALIZED NANOPARTICLES AND CONTROLLED FORMATION METHOD” (THE CURATORS OF THE UNIVERSITY OF MISSOURI, priority 2013, published 2016).

Test: Near infrared whole body florescent imaging, IVIS in-vivo imaging system
Details: nude mice, 100 μl injected once, 0.15 mg/ml ICG
Description: Near Infrared based florescent imaging was carried out in nude mice through IVIS in-vivo imaging system. Briefly, 100 μl of samples of free ICG solution (0.15 mg/ml), PMMA-COOH (0.15 mg/ml of ICG present in nanoparticles) and Pegylated nanoparticles containing ICG (0.15 mg/ml) were injected once and their florescence were recorded at various time points as shown in FIGS. 8A-8C. […] There are three possible reasons for florescence quenching; namely, (i) degradation of free ICG physiological conditions, or (ii) rapid clearance of free ICG from the body, or (iii) a combination of both processes.

time within which florescence diminished: ≤ 6 h
time within which florescence was completely reduced to almost zero: ≤ 24 h
Structure (SMILES): CC1(C)C(/C=C/C=C/C=C/C=C2\N(CCCCS(=O)(=O)O)c3ccc4ccccc4c3C2(C)C)=[N+](CCCCS(=O)(=O)[O-])c2ccc3ccccc3c21 [free ICG, indocyanine green]
